Source: publication PMC11132046, “A Natural Peptide from A Traditional Chinese Medicine Has the Potential to Treat Chronic Atrophic Gastritis by Activating Gastric Stem Cells” (Advanced Science, 2024)
Entries after “also recorded” stand apart in the source; their conditions may differ. Where no end group is shown, it is not given here.

Tests used:
gastric organoids = assay: Inhibition of PEEPA-induced organoid growth by pathway inhibitors; assay type: cell-based, mouse
Experimental: For JAK‐Stat, MEK1 and EGFR inhibition, organoid cultures were respectively treated with Ruxotilinib (15 µM, Selleck, #s1039), U0126 (20 µM, Selleck, #s1102) and Afatinib (1 µM, Selleck, #s1011). The inhibitor was prepared following the manufacturer's instruction.

AG model mice = assay: AG mouse model (MNNG + ranitidine): histology and histopathology scoring; assay type: in vivo; details: comparison Moludan, Sijunzi decoction, berberine
Experimental: (§1) For establishment of a mouse model of atrophic gastritis, normal mice had free access to water containing N‐methyl‐N‐nitro‐N‐nitrosoguanidine (MNNG, […]). Moreover, the mice were given 400 µL of ranitidine (8 mg mL^−1) in solution at a dose of 150 mg kg^−1 daily. After 20 weeks, the mice were euthanized and examined.
(§2) Periplaneta americana insects were cultivated in an industrialized facility and the ethanol extract of (PEEPA) was prepared with a standardized method, which was dissolved in the vehicle containing water, 15% glycerol and 0.2% potassium sorbate. PEEPA‐derived peptides (PEEPA‐P5) were dissolved to 500 ng mL^−1 in water for in vitro experiments and to 1 mg mL^−1 for in vivo experiments. Mice were administrated with PEEPA, PEEPA‐P5, or vehicle through oral gavage daily for 2 or 4 weeks.
For murine gastritis samples, histologic scoring was blindly done following standard criteria. In brief, the oxyntic atrophy scoring was determined by the absence of parietal and chief cells in mucosa and the gastritis histology index has three categories, inflammation, epithelial defects, and oxyntic atrophy. A larger score represents a more severe gastritis.

[1] = cited from earlier work
Description: Herein, by analyzing AG model mice and patient samples with genetic tracing, organoid cultures, and RNA‐seq, we uncovered GSC defects as a critical AG pathogenic factor, associated with decreased signaling of EGF, an important GSC niche molecule. […] We wanted to test their therapeutic effect on AG model mice generated with n‐methyl‐n‐nitro‐n‐nitrosoguanidine (MNNG) and ranitidine (Figure 1A).

[2] = tested on: EGFR, ERKs, Stat1, Akt1, Stat3 in GES-1 cells; assay: Western blot of EGFR downstream signaling in GES-1 cells; assay type: cell-based, human; details: EGF 0.4 µM
Experimental: Western Blot: Tissue proteins were isolated using T-PER Tissue Protein Extraction Reagent (Thermo Fisher, #78510). Proteins of cultured cells were extracted using RIPA lysis buffer supplemented with 1 mM PMSF, […] pepstatin, leupeptin, and aprotonin. Equal amounts of total proteins were subjected to SDS-PAGE and transferred to PVDF membrane (Millipore). The primary antibodies include: p-Stat1 […]
(§3) results were visualized and quantified using the FluoChem M system (ProteinSimple).
Cell culture and cell viability assay: Human gastric normal epithelial cell line GES-1 was cultured in DMEM medium containing 10% fetal bovine serum and 1% pencillin- […]
streptomycin at 37℃ with 5% CO2. […]
(§4) TRIzol reagent. cDNA was reverse transcribed from 500 ng RNA by PrimeScript RT […]
(§5) Light Cycler 480. The sequences of primers are as follows: Gastrin-F: 5’- GGACAGGGACCAATGAGG-3’; Gastrin-R: 5’-
(§6) -3’; SST-F: 5’-ACCGGGAAAAGGAACTGG-3’;
(§7) SST-R: 5’-TTGCTGGGTTCGAGTTGGC-3’; Muc5ac-F: 5’-
(§8) AGCCTAGCCACCACCTTAG-3’; TFF1-F: 5’-[…]-3’;
(§9) TFF1-R: 5’-[…]-3’; TFF2-F: 5’- TGCTCTGGTAGAGGGCGAG-3’; TFF2-R: 5’-CGAGCTAGAGTCAAAGAG-3’;
(§10) Spdef-F: 5’-GGAGGAGACTCTTCTGAAG-3’; Spdef-R: 5’-
(§11) -3’. For human genes, hPCNA-F: 5’-
(§12) CAGCGGTAGGTGTCGAAGC-3’; hTFF2-F: 5’-[…]-
(§13) 3’; hTTF2-R: 5’-[…]-3’; hMuc5ac-F: 5’-
(§14) GCGCACAGAGGATGACAGT-3’; hATP4b-F: 5’-[…]-
(§15) 3’; hATP4b-R: 5’-[…]-3’; hGastrin-F: 5’-
GCCCCTGTACCTAAGGGTG-3’; hAxin2-F: 5’- […]

[3] = tested on: EGFR-Stat1 and EGFR-ERK signaling in AG organoids; assay: Western blot of EGFR signaling in AG patient-derived gastric organoids; assay type: cell-based, human; details: organoids from AG patients
Experimental: (§16) The gastric antrum of mice was harvested and the middle part was cut open. After cleaning in PBS containing 1% pencillin‐streptomycin (PS) for several times, the food residue and other impurities were completely removed. The gastric gland epithelial layer was separated from the muscle layer with forceps under the stereoscope. The epithelial layer was cut into 2.5 mm long fragments, which were digested in 2.5 mM EDTA/DPBS at 4 °C for 1 h. The gland fragments were filtered through a 70 µm strainer (Thermo Fisher), washed with cold DPBS buffer, and centrifuged at 1000 rpm for 5 min. Afterward, the gland sediments were suspended in growth factor reduced phenol‐free Matrigel (Corning) and seeded into 48‐well plate. […] At different time points (Day 1, 3, 5, and 7), the organoids were observed under inverted microscope, and the organ diameter and bud numbers were measured to determine the levels of cell proliferation. […]
as §3
(§17) Cell culture and cell viability assay: Human gastric normal epithelial cell line GES-1 was cultured in DMEM medium containing 10% fetal bovine serum and 1% pencillin-streptomycin at 37℃ with 5% CO2. […] After 3 days, substrate tetrazolium salt was added to each sample and incubated at 37℃ for 2 hrs and the absorbance at 450 nm was measured using BioTeck. […]

[4] = tested on: EGFR-Stat1 and EGFR-ERK signaling in NAG organoids; assay: Western blot of EGFR signaling in NAG patient-derived gastric organoids; assay type: cell-based, human; details: organoids from NAG patients
Experimental: as §16, §3, §17

[5] = no reference given; cited from earlier work
Description: Moreover, PEEPA‐P5 has unique properties compared to EGF. […] Third, PEEPA‐induced ERK and Stat1 activation is much slower.

[6] = tested on: liver and kidney of AG model mice; assay: Body weight and liver/kidney histology in AG model mice; assay type: in vivo, mouse; details: PEEPA-P5; H&E, representative of three mice
Experimental: as §1, §2

[7] = Retention / stability in murine stomach (P5-fluorescein); assay type: in vivo
GES-1 cells = assay: Cell viability assay (CCK-8); assay type: cell-based, human
Experimental: Cell culture and cell viability assay: Human gastric normal epithelial cell line GES-1 was cultured in DMEM medium containing 10% fetal bovine serum and 1% pencillin-streptomycin at 37℃ with 5% CO2. For cell viability assay, Cell Counting Kit-8 (CCK-8) was purchased from KeyGEN BioTECH Corp., Ltd. The cells were cultured in 96-wells plate and PEEPA-P5 was added in each well with different concentrations. After 3 days, substrate tetrazolium salt was added to each sample and incubated at 37℃ for 2 hrs and the absorbance at 450 nm was measured using BioTeck. […]
as §4, §5, §6, §7, §8, §9, §10, §11, §12, §13, §14, §15
GCCCCTGTACCTAAGGGTG-3’; hAxin2-F: 5’-
RNA sequencing: The gastric muscle layer was removed under the stereoscope and the […]

N#CC[C@H](C1CCCC1)n1cc(-c2ncnc3[nH]ccc23)cn1 [Ruxo, ruxolitinib]
effect on PEEPA-induced organoid growth and differentiation (gastric organoids; Jak inhibitor Ruxo 15 µM, n=6 (growth), n=3 (qPCR)): impeded PEEPA‐induced organoid growth and differentiation | expression of differentiation markers in gastric organoids (gastric organoids; Ruxo, qPCR, mean ± SD, n=3): suppressed the expression of differentiation markers

N#CC(=C(/N)Sc1ccccc1N)/C(C#N)=C(/N)Sc1ccccc1N [U0126]
effect on PEEPA-induced organoid growth (gastric organoids; ERK inhibitor U0126 20 µM, mean ± SD, n=3): suppressed PEEPA‐induced organoid growth

CN(C)C/C=C/C(=O)Nc1cc2c(Nc3ccc(F)c(Cl)c3)ncnc2cc1O[C@H]1CCOC1 [afatinib]
effect on PEEPA-induced organoid growth (gastric organoids; EGFR inhibitor afatinib 1 µM, mean ± SD, n=3): blocked the pro‐growth effect of PEEPA on gastric organoids

COc1ccc2cc3[n+](cc2c1OC)CCc1cc2c(cc1-3)OCO2 [berberine, reference compound]
restoration of gland structure, gastritis histology index and oxyntic atrophic score (compared with PEEPA) (AG model mice): only PEEPA restored the gastric gland structure | reported therapeutic effects on AG ([1]; ref [16]): therapeutic effects on AG

EGF: GSC niche molecule; EGF protein used as comparison
downstream signaling activated by EGF [2]: activates ERK, Akt1, and Stat1/3 signaling | sensitivity to EGF, AG organoids [3]: organoids from AG patients are insensitive | sensitivity to EGF, NAG organoids [4]: organoids from NAG patients are highly sensitive to EGF | secretion of defensin 3 ([1]; ref [15]): promotes secretion of defensin 3 | stability in acidic stomach environment [5]: instability of EGF in acidic stomach environment

PAAEPVPLVKQD [PEEPA-P5]
effect on liver or kidney [6]: little effect on the kidney or liver structure; also recorded: no obvious effect on the liver or kidney | stability in the acidic environment of the stomach ([7]; inferred from retention of P5-fluorescein in mouse stomach): relatively stable in the acidic environment of the stomach | retention time in the stomach ([7]; mouse, oral gavage, measured using P5-fluorescein (PEEPA-P5-FITC), fluorescence at different time points): 3.09 h | IC50 (GES-1 cells): 284 µM | toxicity towards GES-1 cells (GES-1 cells; CCK-8, 3 days): low cell toxicity
